According to PMC10891143, “Quantitative live cell imaging of a tauopathy model enables the identification of a polypharmacological drug candidate that restores physiological microtubule interaction” (Nature Communications, 2024):

Assays:
[1] = molecular target: T1, Tau (recombinant human tau, Tau441wt) (Homo sapiens, UniProt P10636, DEL125-375/DEL395-460/DEL597-597); assay: heparin-induced aggregation, ultracentrifugation sedimentation assay; format: biochemical; details: 2-20 µM PHOX15, 24 h, 37 °C, pH 7.4, 200 µg/ml heparin, 1% DMSO
T1 construct: gene MAPT; full-length Tau441, pET-3d, E. coli BL21(DE3)pLysS; anion exchange and phosphocellulose chromatography
T1 sequence (P10636 with tags, fused parts or gaps DEL125-375/DEL395-460/DEL597-597): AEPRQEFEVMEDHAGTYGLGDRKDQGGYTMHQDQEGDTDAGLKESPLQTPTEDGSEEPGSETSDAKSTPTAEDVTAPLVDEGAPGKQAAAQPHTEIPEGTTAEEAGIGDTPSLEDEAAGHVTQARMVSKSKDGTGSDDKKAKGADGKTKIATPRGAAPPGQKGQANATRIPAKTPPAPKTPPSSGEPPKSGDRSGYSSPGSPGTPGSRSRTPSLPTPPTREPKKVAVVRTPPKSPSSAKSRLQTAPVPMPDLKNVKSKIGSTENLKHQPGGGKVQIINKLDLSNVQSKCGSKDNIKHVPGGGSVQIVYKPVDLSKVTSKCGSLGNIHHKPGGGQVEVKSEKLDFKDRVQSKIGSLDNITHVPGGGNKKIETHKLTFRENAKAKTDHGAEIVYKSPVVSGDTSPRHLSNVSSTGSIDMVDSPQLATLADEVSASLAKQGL

[2] = molecular target: T2, PAGFP-Tau / PAGFP-TauΔK280 (Homo sapiens, UniProt P10636, DEL125-375/DEL395-460/DEL597-597); assay: FDAP live-cell imaging, effective diffusion constant of tau (restored microtubule binding); format: cell-based
T2 construct: gene MAPT
T2 sequence (P10636 with tags, fused parts or gaps DEL125-375/DEL395-460/DEL597-597): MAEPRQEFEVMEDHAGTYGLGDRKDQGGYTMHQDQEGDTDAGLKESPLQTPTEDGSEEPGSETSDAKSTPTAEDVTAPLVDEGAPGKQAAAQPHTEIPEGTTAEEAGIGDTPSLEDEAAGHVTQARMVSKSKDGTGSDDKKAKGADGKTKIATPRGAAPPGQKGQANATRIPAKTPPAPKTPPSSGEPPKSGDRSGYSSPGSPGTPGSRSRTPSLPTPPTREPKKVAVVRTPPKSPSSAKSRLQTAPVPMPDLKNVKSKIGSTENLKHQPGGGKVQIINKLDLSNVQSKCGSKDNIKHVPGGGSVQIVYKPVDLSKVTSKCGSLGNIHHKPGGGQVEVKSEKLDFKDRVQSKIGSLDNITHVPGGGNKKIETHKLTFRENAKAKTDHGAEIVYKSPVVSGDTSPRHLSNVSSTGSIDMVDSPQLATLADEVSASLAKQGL
Text: FDAP live-cell imaging, effective diffusion constant of tau (restored microtubule binding) on PAGFP-Tau / PAGFP-TauΔK280 | IC50 value of the activity of PHOX15 to restore microtubule binding of TauΔK280, obtaining

[3] = molecular target: T3, Tau (recombinant human tau, Tau441wt) (Homo sapiens, UniProt P10636); assay: heparin-induced aggregation, ultracentrifugation sedimentation assay; format: biochemical; details: 20 µM PHOX15 (significant, p = 0.0494), 24 h, 37 °C, pH 7.4, 200 µg/ml heparin, 1% DMSO
T3 construct: gene MAPT; full-length Tau441, pET-3d, E. coli BL21(DE3)pLysS; anion exchange and phosphocellulose chromatography
T3 sequence (P10636 1-441 isoform P10636-8): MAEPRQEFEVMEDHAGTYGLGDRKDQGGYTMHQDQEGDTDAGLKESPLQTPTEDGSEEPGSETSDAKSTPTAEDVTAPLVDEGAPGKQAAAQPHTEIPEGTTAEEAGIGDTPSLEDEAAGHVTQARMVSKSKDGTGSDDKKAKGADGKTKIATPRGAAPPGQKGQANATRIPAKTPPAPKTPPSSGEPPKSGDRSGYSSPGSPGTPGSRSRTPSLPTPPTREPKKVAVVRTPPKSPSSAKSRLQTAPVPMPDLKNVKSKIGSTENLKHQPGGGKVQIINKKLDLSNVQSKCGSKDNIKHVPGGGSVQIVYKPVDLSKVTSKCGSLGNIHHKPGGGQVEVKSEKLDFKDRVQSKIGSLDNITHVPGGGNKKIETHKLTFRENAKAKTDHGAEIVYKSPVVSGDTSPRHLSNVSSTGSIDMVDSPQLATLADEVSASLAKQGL

With O=C(Nc1ccccc1)c1coc(-c2ccc(O)cc2O)n1 [PHOX15, 2-(2,4-dihydroxyphenyl)-N-phenyloxazole-4-carboxamide] the “% reduction of filament formation” value [1] was ~ 20%, the IC50 [2] was 14 µM and the “fraction of aggregated tau” value [3] was “PHOX15 decreases aggregation of recombinant TauΔK280 and human wild-type tau (Tau) in vitro”.
